From US20240252488A1 (KOREA RESEARCH INSTITUTE OF CHEMICAL TECHNOLOGY, priority 2020, published 2024)

Tests used:
FADD−/− Jurkat cells = test: Necroptosis inhibition assay, TNF-α-induced necroptosis (CellTiter-Glo 2.0); type: cell-based, human; details: TNF-α 15 ng/mL; for Necroptosis inhibition assay (Rescue %) 1 μM: compound 1 μM; for Necroptosis inhibition assay (Rescue %) 10 μM: compound 10 μM
Summary of the method: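 Compound is added to cells at final concentrations of 0.1, 1 and 10 μM and left 30 minutes at room temperature. Necroptosis is induced with 15 ng/mL TNF-α, culture continues 20 to 24 hours at 37° C, and ATP-based luminescence reports viability.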

MLKL [1] = target: T1, MLKL (Homo sapiens, UniProt Q8NB16); test: MLKL degradation assay in HepG2 cell line (western blot); type: cell-based; parameters: endogenous in cells; host or cells: HepG2 or HaCaT; details: cell line not given; for Degradation assay (Degradation %) 1 μM: compound 1 μM; for Degradation assay (Degradation %) 10 μM: compound 10 μM
T1 sequence (Q8NB16 1-471): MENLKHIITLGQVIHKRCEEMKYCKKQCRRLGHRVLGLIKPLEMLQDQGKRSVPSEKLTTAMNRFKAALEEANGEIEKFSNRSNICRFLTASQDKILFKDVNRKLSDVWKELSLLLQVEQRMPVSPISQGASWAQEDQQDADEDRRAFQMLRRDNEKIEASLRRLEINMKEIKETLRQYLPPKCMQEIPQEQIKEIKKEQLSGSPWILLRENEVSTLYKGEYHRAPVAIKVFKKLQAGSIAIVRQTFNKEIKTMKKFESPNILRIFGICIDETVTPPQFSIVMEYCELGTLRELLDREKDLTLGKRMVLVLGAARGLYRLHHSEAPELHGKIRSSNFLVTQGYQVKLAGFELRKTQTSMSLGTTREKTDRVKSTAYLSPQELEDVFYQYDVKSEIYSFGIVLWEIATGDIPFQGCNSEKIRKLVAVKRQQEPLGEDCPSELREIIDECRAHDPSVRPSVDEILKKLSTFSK
Summary of the method: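 Chemiluminescent western blot signal reports remaining MLKL protein in HepG2 cells after 20-24 h treatment with compound at a final 1 or 10 μM. Equal protein (10-15 μg, BCA) is loaded per lane.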

MLKL [2] = target: T1, MLKL; test: Measurement of binding affinity with MLKL receptor (competitive binding assay, Kd); parameters: made in house; host or cells: HEK 293 cell line (T7 phage in E. coli BL21-derived host is also described)
Summary of the method: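 Competition binding of kinase tagged with DNA for qPCR detection, expressed in HEK 293 cells, against immobilized ligand on beads. Final DMSO 0.9%. Kd derived from kinase amount in eluates measured by qPCR.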

Nc1ncc(-c2cnn(C3CCN(CCOC4CCN(C(=O)COc5cccc6c5C(=O)N(C5CCC(=O)NC5=O)C6=O)CC4)CC3)c2)nc1C(=O)OC(C(=O)Nc1ccc(F)cc1)c1ccccc1 (stereo not shown) [TDH-251, 2-((4-fluorophenyl)amino)-2-oxo-1-phenylethyl 3-amino-6-(1-(1-(2-((1-(2-((2-(2,6-dioxopiperidin-3-yl)-1,3-dioxoisoindolin-4-yl)oxy)acetyl)piperidin-4-yl)oxy)ethyl)piperidin-4-yl)-1H-pyrazol-4-yl)pyrazine-2-carboxylate]
Necroptosis inhibition assay (Rescue %) 1 μM (FADD−/− Jurkat cells): 84.44%
Necroptosis inhibition assay (Rescue %) 10 μM (FADD−/− Jurkat cells): 74.61%
Degradation assay (Degradation %) 1 μM (MLKL [1]): 72.87%
Degradation assay (Degradation %) 10 μM (MLKL [1]): 63.25%
Kd (MLKL [2]): 1.8 nM

Nc1ncc(-c2cnn(C3CCN(CCOC4CCN(C(=O)COc5ccc6c(c5)C(=O)N(C5CCC(=O)NC5=O)C6=O)CC4)CC3)c2)nc1C(=O)OC(C(=O)Nc1ccc(F)cc1)c1ccccc1 (stereo not shown) [TDH-252, 2-((4-fluorophenyl)amino)-2-oxo-1-phenylethyl 3-amino-6-(1-(1-(2-((1-(2-((2-(2,6-dioxopiperidin-3-yl)-1,3-dioxoisoindolin-5-yl)oxy)acetyl)piperidin-4-yl)oxy)ethyl)piperidin-4-yl)-1H-pyrazol-4-yl)pyrazine-2-carboxylate]
Necroptosis inhibition assay (Rescue %) 1 μM (FADD−/− Jurkat cells): 124.11%
Necroptosis inhibition assay (Rescue %) 10 μM (FADD−/− Jurkat cells): 73.38%
Degradation assay (Degradation %) 1 μM (MLKL [1]): 76.56%
Degradation assay (Degradation %) 10 μM (MLKL [1]): 84.2%
Kd (MLKL [2]): 3.9 nM

Nc1ncc(-c2cnn(C3CCN(CCOC4CCN(c5cccc6c5C(=O)N(C5CCC(=O)NC5=O)C6=O)CC4)CC3)c2)nc1C(=O)OC(C(=O)Nc1ccc(F)cc1)c1ccccc1 (stereo not shown) [TDH-253, 2-((4-fluorophenyl)amino)-2-oxo-1-phenylethyl 3-amino-6-(1-(1-(2-((1-(2-(2,6-dioxopiperidin-3-yl)-1,3-dioxoisoindolin-4-yl)piperidin-4-yl)oxy)ethyl)piperidin-4-yl)-1H-pyrazol-4-yl)pyrazine-2-carboxylate]
Necroptosis inhibition assay (Rescue %) 1 μM (FADD−/− Jurkat cells): 65.01%
Necroptosis inhibition assay (Rescue %) 10 μM (FADD−/− Jurkat cells): 36.1%
Degradation assay (Degradation %) 1 μM (MLKL [1]): 80.74%
Degradation assay (Degradation %) 10 μM (MLKL [1]): 59.15%
Kd (MLKL [2]): 10 nM

Nc1ncc(-c2cnn(C3CCN(CCOC4CCN(c5ccc6c(c5)C(=O)N(C5CCC(=O)NC5=O)C6=O)CC4)CC3)c2)nc1C(=O)OC(C(=O)Nc1ccc(F)cc1)c1ccccc1 (stereo not shown) [TDH-254, 2-((4-fluorophenyl)amino)-2-oxo-1-phenylethyl 3-amino-6-(1-(1-(2-((1-(2-(2,6-dioxopiperidin-3-yl)-1,3-dioxoisoindolin-5-yl)piperidin-4-yl)oxy)ethyl)piperidin-4-yl)-1H-pyrazol-4-yl)pyrazine-2-carboxylate]
Necroptosis inhibition assay (Rescue %) 1 μM (FADD−/− Jurkat cells): 24.05%
Necroptosis inhibition assay (Rescue %) 10 μM (FADD−/− Jurkat cells): 15.37%
Degradation assay (Degradation %) 1 μM (MLKL [1]): 19.16%
Degradation assay (Degradation %) 10 μM (MLKL [1]): 25.97%
Kd (MLKL [2]): 8 nM

Nc1ncc(-c2ccc(N3CCN(CC4CCN(C(=O)COc5cccc6c5C(=O)N(C5CCC(=O)NC5=O)C6=O)CC4)CC3)nc2)nc1C(=O)OC(C(=O)Nc1ccc(F)cc1)c1ccccc1 (stereo not shown) [TDH-255, 2-((4-fluorophenyl)amino)-2-oxo-1-phenylethyl 3-amino-6-(6-(4-((1-(2-((2-(2,6-dioxopiperidin-3-yl)-1,3-dioxoisoindolin-4-yl)oxy)acetyl)piperidin-4-yl)methyl)piperazin-1-yl)pyridin-3-yl)pyrazine-2-carboxylate]
Necroptosis inhibition assay (Rescue %) 1 μM (FADD−/− Jurkat cells): 46.68%
Necroptosis inhibition assay (Rescue %) 10 μM (FADD−/− Jurkat cells): 32.39%
Degradation assay (Degradation %) 1 μM (MLKL [1]): 35.59%
Degradation assay (Degradation %) 10 μM (MLKL [1]): 34.35%
Kd (MLKL [2]): 41 nM

Nc1ncc(-c2ccc(N3CCN(CC4CCN(C(=O)COc5ccc6c(c5)C(=O)N(C5CCC(=O)NC5=O)C6=O)CC4)CC3)nc2)nc1C(=O)OC(C(=O)Nc1ccc(F)cc1)c1ccccc1 (stereo not shown) [TDH-256, 2-((4-fluorophenyl)amino)-2-oxo-1-phenylethyl 3-amino-6-(6-(4-((1-(2-((2-(2,6-dioxopiperidin-3-yl)-1,3-dioxoisoindolin-5-yl)oxy)acetyl)piperidin-4-yl)methyl)piperazin-1-yl)pyridin-3-yl)pyrazine-2-carboxylate]
Necroptosis inhibition assay (Rescue %) 1 μM (FADD−/− Jurkat cells): 45.87%
Necroptosis inhibition assay (Rescue %) 10 μM (FADD−/− Jurkat cells): 44.55%
Degradation assay (Degradation %) 1 μM (MLKL [1]): 36.84%
Degradation assay (Degradation %) 10 μM (MLKL [1]): 24.99%
Kd (MLKL [2]): 78 nM

Nc1ncc(-c2ccc(N3CCN(CCOCCOCCNC(=O)C4CCN(c5cccc6c5C(=O)N(C5CCC(=O)NC5=O)C6=O)CC4)CC3)nc2)nc1C(=O)OC(C(=O)Nc1ccc(F)cc1)c1ccccc1 (stereo not shown) [TDH-257, 2-((4-fluorophenyl)amino)-2-oxo-1-phenylethyl 3-amino-6-(6-(4-(2-(2-(2-(1-(2-(2,6-dioxopiperidin-3-yl)-1,3-dioxoisoindolin-4-yl)piperidine-4-carboxamido)ethoxy)ethoxy)ethyl)piperazin-1-yl)pyridin-3-yl)pyrazine-2-carboxylate]
Necroptosis inhibition assay (Rescue %) 1 μM (FADD−/− Jurkat cells): 24.61%
Necroptosis inhibition assay (Rescue %) 10 μM (FADD−/− Jurkat cells): 21.71%
Degradation assay (Degradation %) 1 μM (MLKL [1]): 7.56%
Degradation assay (Degradation %) 10 μM (MLKL [1]): 26.63%
Kd (MLKL [2]): 96 nM

Nc1ncc(-c2ccc(N3CCN(CCOCCOCCNC(=O)C4CCN(c5ccc6c(c5)C(=O)N(C5CCC(=O)NC5=O)C6=O)CC4)CC3)nc2)nc1C(=O)OC(C(=O)Nc1ccc(F)cc1)c1ccccc1 (stereo not shown) [TDH-258, 2-((4-fluorophenyl)amino)-2-oxo-1-phenylethyl 3-amino-6-(6-(4-(2-(2-(2-(1-(2-(2,6-dioxopiperidin-3-yl)-1,3-dioxoisoindolin-5-yl)piperidine-4-carboxamido)ethoxy)ethoxy)ethyl)piperazin-1-yl)pyridin-3-yl)pyrazine-2-carboxylate]
Necroptosis inhibition assay (Rescue %) 1 μM (FADD−/− Jurkat cells): 33.73%
Necroptosis inhibition assay (Rescue %) 10 μM (FADD−/− Jurkat cells): 24.69%
Degradation assay (Degradation %) 1 μM (MLKL [1]): 13.9%
Degradation assay (Degradation %) 10 μM (MLKL [1]): 10.67%
Kd (MLKL [2]): 78 nM

Nc1ncc(-c2ccc(N3CCN(CCOCCOCCNC(=O)CNc4ccc5c(c4)C(=O)N(C4CCC(=O)NC4=O)C5=O)CC3)nc2)nc1C(=O)OC(C(=O)Nc1ccc(F)cc1)c1ccccc1 (stereo not shown) [TDH-260, 2-((4-fluorophenyl)amino)-2-oxo-1-phenylethyl 3-amino-6-(6-(4-(2-(2-(2-(2-((2-(2,6-dioxopiperidin-3-yl)-1,3-dioxoisoindolin-5-yl)amino)acetamido)ethoxy)ethoxy)ethyl)piperazin-1-yl)pyridin-3-yl)pyrazine-2-carboxylate]
Necroptosis inhibition assay (Rescue %) 1 μM (FADD−/− Jurkat cells): 14.46%
Necroptosis inhibition assay (Rescue %) 10 μM (FADD−/− Jurkat cells): 13.52%
Degradation assay (Degradation %) 1 μM (MLKL [1]): 38.65%
Degradation assay (Degradation %) 10 μM (MLKL [1]): 53.35%
Kd (MLKL [2]): 18 nM

Nc1ncc(-c2ccc(N3CCN(CCOCCOCCNC(=O)COc4cccc5c4C(=O)N(C4CCC(=O)NC4=O)C5=O)CC3)nc2)nc1C(=O)OC(C(=O)Nc1ccc(F)cc1)c1ccccc1 (stereo not shown) [TDH-261, 2-((4-fluorophenyl)amino)-2-oxo-1-phenylethyl 3-amino-6-(6-(4-(2-(2-(2-(2-((2-(2,6-dioxopiperidin-3-yl)-1,3-dioxoisoindolin-4-yl)oxy)acetamido)ethoxy)ethoxy)ethyl)piperazin-1-yl)pyridin-3-yl)pyrazine-2-carboxylate]
Necroptosis inhibition assay (Rescue %) 1 μM (FADD−/− Jurkat cells): 15.5%
Necroptosis inhibition assay (Rescue %) 10 μM (FADD−/− Jurkat cells): 14.28%
Degradation assay (Degradation %) 1 μM (MLKL [1]): 34.54%
Degradation assay (Degradation %) 10 μM (MLKL [1]): 42.25%
Kd (MLKL [2]): 43 nM

Nc1ncc(-c2ccc(N3CCN(CCOCCOCCNC(=O)COc4ccc5c(c4)C(=O)N(C4CCC(=O)NC4=O)C5=O)CC3)nc2)nc1C(=O)OC(C(=O)Nc1ccc(F)cc1)c1ccccc1 (stereo not shown) [TDH-262, 2-((4-fluorophenyl)amino)-2-oxo-1-phenylethyl 3-amino-6-(6-(4-(2-(2-(2-(2-((2-(2,6-dioxopiperidin-3-yl)-1,3-dioxoisoindolin-5-yl)oxy)acetamido)ethoxy)ethoxy)ethyl)piperazin-1-yl)pyridin-3-yl)pyrazine-2-carboxylate]
Necroptosis inhibition assay (Rescue %) 1 μM (FADD−/− Jurkat cells): 22.59%
Necroptosis inhibition assay (Rescue %) 10 μM (FADD−/− Jurkat cells): 4.02%
Degradation assay (Degradation %) 1 μM (MLKL [1]): 58.43%
Degradation assay (Degradation %) 10 μM (MLKL [1]): 75.8%
Kd (MLKL [2]): 65 nM
